# Key:
# Format in all cases: in vivo
# CD1 male mice [1] = experiment: Mice tail suspension test (animal depression model)
# Procedure: In the mice tail suspension test, mice present the special quiet immobility state without any struggle in the tail suspension state, and antidepressant drugs can obviously shorten the duration of the immobility state. When tested, mice tails are fixed with clips, hanging upside-down. […] The time of immobility is recorded. The immobility indicator is “animal has no body movement in addition to breathing”. […] Laboratory Animal: CD1 mice, male, 25 g˜35 g, provided by Beijing Vital River Laboratories (VRL) (License No.: SCXK (Beijing), 2011-0011). Animals were kept in separate cages with free access to water; feed is provided by Laboratory Animal Center, Institute of Genetics and Developmental Biology, Chinese Academy of Sciences; laboratory mice ate ordinary feed. […] Drugs were delivered at 10 a.m. by intraperitoneal injection, 90 minutes after which tail suspension test statistics started. In mice tail suspension test, mice tails were stuck to a horizontal rail with tape 2 cm away from the tail tip, making animals upside down, whose heads were about 15 cm from the desktop. After observing for 6 minutes, the accumulative immobility time within the following 4 minutes was recorded. The immobility indicator was “animal has no body movement in addition to breathing”. Statistical Method: The laboratory results were all expressed by “mean value±SE”; two sample means were compared by t test.
# CD1 male mice [2] = experiment: Mice forced swimming test; details: for forced swimming immobility time within 4 minutes: blank control 111.96±14.58 s, mean±SE, P<0.05
# Excerpt: “Immobility” herein refers to that “animals stop struggling in the water, or stay in a floating state, only showing nostrils for breathing with only small body movement to keep the head floating on the water”. Before the test, the drugs to be screened are given. The animals in the condition of forced swimming cannot escape from the harsh environment, leading to despairing animal behaviors. […] Laboratory Animal: CD1 mice, male, provided by Beijing Vital River Laboratories (VRL) (License No.: SCXK (Beijing), 2011-0011). Animals were kept in separate cages a week before test, with a light and shade cycle of 12 h/12 h, at room temperature 20° C.˜22° C., and with free access to water and food. Feed is provided by Laboratory Animal Center, Institute of Genetics and Developmental Biology, Chinese Academy of Sciences. CD1 mice, 7 weeks old, 25 g-35 g, were used for test after acclimating for 1 week. Mice were divided into 5 groups randomly, 8 mice for each. They were treated in the same way as Example 1: Drugs were delivered at 10 a.m. by intraperitoneal injection, once a day for 3 days, then forced swimming test started. Forced swimming test: All CD1 mice in each group were separately and vertically put into the organic glass cylinder (40 cm×14 cm in diameter) with 15 cm-depth and 23° C. water. After recoding a video of each dose group and control group for 6 minutes, the accumulative immobility time within the following 4 minutes was compared between each group. […] The laboratory results were all expressed by “mean value±SE”; two sample means were compared by t test.
# CD1 male mice [3] = experiment: Mice open field test to verify central excitability; details: measuring time 1 h/mouse, control 424.15+82.78 s, Anova p>0.05, N=12
# Excerpt: Laboratory materials and methods are the same as Example 1 and Example 2.
# Considering that the reduced immobility time of animals in classic animal depression models may be due to the central excitability effect of drugs, we conducted a mice open field test to verify the central excitability of cordycepin. Mice were processed 1 d before the open field behavior test. They were kept in the open box with 80 cm in both length and width, 40 cm in height, black wall, 16 equal sections in area, and indoor sound insulation. After the test started, mice were put in the middle of the box, and the time of mice staying in the central 4 sections was taken as a parameter. The measuring time was 1 h/mouse every time. […] Besides, there is no rising trend, so for cordycepin, the possibility of causing the manic state can be ruled out.
# [4] = high-dose 12.5 mg/kg i.p. once a day for 3 days
# [5] = low-dose 5 mg/kg i.p. once a day for 3 days
structure (smiles),measurement,setting,value
"Nc1ncnc2c1ncn2[C@@H]1O[C@H](CO)C[C@H]1O [cordycepin, 3′-deoxyadenosine]",time needed for antidepressant effect to be very obvious,CD1 male mice [1]; high-dose 12.5 mg/kg i.p.,1.5 h
same,decrease of tail suspension immobility time vs blank control,"CD1 male mice [1]; high-dose 12.5 mg/kg i.p., 90 min after injection",60.8%
same,tail suspension immobility time,"CD1 male mice [1]; high-dose 12.5 mg/kg i.p., 90 min after injection, blank control 86.43±20.37 s, mean±SE, P<0.05",33.86 ± 7.46 s
same,tail suspension immobility time vs control,"CD1 male mice [1]; low-dose 5 mg/kg i.p., 90 min after injection",has not been significantly reduced
same,antidepressant effect compared with imipramine (15 mg/kg),CD1 male mice [2]; [4],stronger antidepressant effects
same,decrease of forced swimming immobility time vs blank control,CD1 male mice [2]; [4],68.8%
same,forced swimming immobility time within 4 minutes,CD1 male mice [2]; [4],34.94 ± 12.16 s
same,decrease of forced swimming immobility time vs blank control,CD1 male mice [2]; [5],37.6%
same,forced swimming immobility time within 4 minutes,CD1 male mice [2]; [5],69.88 ± 10.25 s
same,time staying in the central 4 sections,CD1 male mice [3]; high-dose group,379.88+95.28 s
same,time staying in the central 4 sections,CD1 male mice [3]; low-dose group,399.75+72.25 s

# Source: patent US9629866B2, “Use of cordycepin in manufacture of medicaments for anti-depression” (BEIJING GRAGEN BIOTECHNOLOGY CO. LTD., priority 2012, dated 2017)
